Marks after values point to notes of the source that are not given here.
Experiments:
cow foot rot disease = assay: treatment of cow foot rot disease; assay type: in vivo, cows; settings: for Milk production (daily yield) / Total number of cured cows: n = 10
canine renal failure = assay: treatment of canine renal failure; assay type: in vivo, dogs; settings: 14 days, n = 10
feline parvovirus = assay: treatment of feline parvovirus; assay type: in vivo, cats; parameters: White blood cell count: unit not given here; settings: 14 days, n = 10
Protocol: (§1) Anemoside B4 injection prepared in example 3, with a concentration of 50 mg/mL.
Cats suffering from feline parvovirus are cases received by various pet hospitals in Chengdu.
Cats occasionally having fever, severe vomiting, and diarrhea; the stool changing from gray to yellow and finally to milky white, accompanied by jelly-like mucus; stools liking tomato sauce, smelly and unpleasant; having a lying prone; the number of white blood cells dropping sharply, cold limbs, highly depressed spirit, then shock to death.
(§2) Anemoside B4 injection was intravenously injected, 2 mL/time in low-dose group, 4 mL/time in medium-dose group, 8 mL/time in high-dose group, once a day; anemoside B4 injection was intramuscularly injected, 1 mL/time in low-dose group, 2 mL/time in the middle-dose group, 4 mL/time in the high-dose group, twice a day; the treatment was kept for 14 days.

[1] = test system: cow clinical endometritis; assay: treatment of cow clinical endometritis; assay type: in vivo, cows; settings: n = 10
Protocol: Anemoside B4 injection prepared in example 3, with a concentration of 50 mg/mL; Anemoside B4 intrauterine injection prepared in example 5, with a concentration of 50 mg/mL.
Positive drug: doxycycline hydrochloride intrauterine injection (24 g/injection, produced by Zhengzhou Bairui Animal Pharmaceutical Co., Ltd., batch No.: 170901).
130 cows with disease were randomly divided into 13 groups, 10 cows for each group.
The cows selected in this experiment were all those with clinical endometritis. During the experiment, the temperature, spirit and diet of the cows were normal.
Administration by […] injection: Administrating anemoside B4 by intramulscular injection, twice per day, one in the morning and another in the evening, for successive four days;
Administration by intrauterine infusion: administrating anemoside B4 and positive drug doxycycline hydrochloride by intrauterine infusion, once every other day, for 4 times.
A blank control group was set up in different administration routes, and the same dose of normal saline was administered.

canine parvovirus = assay: treatment of canine parvovirus; assay type: in vivo, dogs; parameters: White blood cell count: unit not given here; settings: 14 days, n = 10
Protocol: as §1
Dogs suffering from canine parvovirus are cases received by various pet hospitals in Chengdu.
In the early, dogs have high temperature and vomit violently. The vomit changes from white to yellow, and finally to green, with a small amount of blood streak; eyes' conjunctival congestion and tears; liking drinking water and vomiting after drinking; fecal jets are like tomato sauce, smelly and unpleasant; preferring to lie down; the number of white blood cells dropped sharply, together with severe dehydration, heart failure, and shock to death.
as §2

[2] = high-dose, intravenous injection 60 mL (50 mg/mL), once a day, 4 days
[3] = high-dose, pulvis 1.5 g, external application, once every other day, 4 times
[4] = high-dose, subcutaneous injection 15 mL (50 mg/mL) in affected limbs, once a day, 4 days
[5] = low-dose, intravenous injection 20 mL (50 mg/mL), once a day, 4 days
[6] = low-dose, pulvis 0.5 g, external application, once every other day, 4 times
[7] = low-dose, subcutaneous injection 5 mL (50 mg/mL) in affected limbs, once a day, 4 days
[8] = medium-dose, intravenous injection 40 mL (50 mg/mL), once a day, 4 days
[9] = medium-dose, pulvis 1.0 g, external application, once every other day, 4 times
[10] = medium-dose, subcutaneous injection 10 mL (50 mg/mL) in affected limbs, once a day, 4 days
[11] = high-dose, intramuscular injection 4 mL/time (50 mg/mL), twice a day
[12] = high-dose, intravenous injection 8 mL/time (50 mg/mL), once a day
[13] = low-dose, intramuscular injection 1 mL/time (50 mg/mL), twice a day
[14] = low-dose, intravenous injection 2 mL/time (50 mg/mL), once a day
[15] = medium-dose, intramuscular injection 2 mL/time (50 mg/mL), twice a day
[16] = medium-dose, intravenous injection 4 mL/time (50 mg/mL), once a day
[17] = high-dose, intramuscular injection 30 mL/time (50 mg/mL), twice per day, 4 days
[18] = high-dose, intrauterine infusion 30 mL/time (50 mg/mL), once every other day, 4 times
[19] = high-dose, intravenous injection 60 mL/time (50 mg/mL)
[20] = low-dose, intramuscular injection 10 mL/time (50 mg/mL), twice per day, 4 days
[21] = low-dose, intrauterine infusion 10 mL/time (50 mg/mL), once every other day, 4 times
[22] = low-dose, intravenous injection 20 mL/time (50 mg/mL)
[23] = medium-dose, intramuscular injection 20 mL/time (50 mg/mL), twice per day, 4 days
[24] = medium-dose, intrauterine infusion 20 mL/time (50 mg/mL), once every other day, 4 times
[25] = medium-dose, intravenous injection 40 mL/time (50 mg/mL)

In the case of `C=C(C)[C@@H]1CC[C@]2(C(=O)O[C@@H]3O[C@H](CO[C@@H]4O[C@H](CO)[C@@H](O[C@@H]5O[C@@H](C)[C@H](O)[C@@H](O)[C@H]5O)[C@H](O)[C@H]4O)[C@@H](O)[C@H](O)[C@H]3O)CC[C@]3(C)[C@H](CC[C@@H]4[C@@]5(C)CC[C@H](O[C@@H]6OC[C@H](O)[C@H](O)[C@H]6O[C@@H]6O[C@@H](C)[C@H](O)[C@@H](O)[C@H]6O)[C@@](C)(CO)[C@@H]5CC[C@]43C)[C@H]12` [anemoside B4], the cure rate (cow foot rot disease; high-dose subcutaneous injection group, middle- and high-dose pulvis groups) is reported as “above 80%”, the “Milk production (daily yield)” value (cow foot rot disease; [2]) is reported as 22.2 ± 1.5 kg/cow and the “Total number of cured cows” value (cow foot rot disease; [2]) is reported as 6. For the same compound, the “Milk production (daily yield)” value (cow foot rot disease; [3]) was 25.9 ± 2.4 kg/cow, the “Total number of cured cows” value (cow foot rot disease; [3]) was 9 and the “Milk production (daily yield)” value (cow foot rot disease; [4]) was 25.6 ± 2.8 kg/cow. For the same compound, the “Total number of cured cows” value (cow foot rot disease; [4]) was 8, the “Milk production (daily yield)” value (cow foot rot disease; [5]) was 18.2 ± 1.4 kg/cow and the “Total number of cured cows” value (cow foot rot disease; [5]) was 4. For the same compound, the “Milk production (daily yield)” value (cow foot rot disease; [6]) was 22.6 ± 2.5 kg/cow, the “Total number of cured cows” value (cow foot rot disease; [6]) was 6 and the “Milk production (daily yield)” value (cow foot rot disease; [7]) was 20.4 ± 1.9 kg/cow. The “Total number of cured cows” value (cow foot rot disease; [7]) was 5, the “Milk production (daily yield)” value (cow foot rot disease; [8]) was 20.8 ± 2.2 kg/cow and the “Total number of cured cows” value (cow foot rot disease; [8]) was 5. The “Milk production (daily yield)” value (cow foot rot disease; [9]) was 24.2 ± 1.7 kg/cow, the “Total number of cured cows” value (cow foot rot disease; [9]) was 8 and the “Milk production (daily yield)” value (cow foot rot disease; [10]) was 22.1 ± 1.6 kg/cow. The “Total number of cured cows” value (cow foot rot disease; [10]) was 7, the Body temperature (canine renal failure; [11]) was 38.5 ± 0.2 °C and the Creatinine (canine renal failure; [11]) was 100 ± 30 µmol/L. It also gave an Inorganic phosphous (canine renal failure; [11]) of 1.4 ± 0.08 mmol/L, a Mortality rate (canine renal failure; [11]) of 40% and a Urea (canine renal failure; [11]) of 14.2 ± 0.4 mmol/L. It also gave a Body temperature (canine renal failure; [12]) of 38.6 ± 0.4 °C, a Creatinine (canine renal failure; [12]) of 109 ± 20 µmol/L and an Inorganic phosphous (canine renal failure; [12]) of 0.9 ± 0.06 mmol/L. The Mortality rate (canine renal failure; [12]) was 20%, the Urea (canine renal failure; [12]) was 8.7 ± 0.3 mmol/L and the Body temperature (canine renal failure; [13]) was 37.8 ± 0.3 °C. The Creatinine (canine renal failure; [13]) was 130 ± 19 µmol/L, the Inorganic phosphous (canine renal failure; [13]) was 1.6 ± 0.02 mmol/L and the Mortality rate (canine renal failure; [13]) was 60%. For the same compound, the Urea (canine renal failure; [13]) was 20.8 ± 0.5 mmol/L, the Body temperature (canine renal failure; [14]) was 38.3 ± 0.5 °C and the Creatinine (canine renal failure; [14]) was 117 ± 25 µmol/L. The Inorganic phosphous (canine renal failure; [14]) was 1.1 ± 0.05 mmol/L, the Mortality rate (canine renal failure; [14]) was 40% and the Urea (canine renal failure; [14]) was 11.8 ± 0.6 mmol/L. For the same compound, the Body temperature (canine renal failure; [15]) was 38.2 ± 0.4 °C, the Creatinine (canine renal failure; [15]) was 120 ± 26 µmol/L and the Inorganic phosphous (canine renal failure; [15]) was 2.0 ± 0.03 mmol/L. For the same compound, the Mortality rate (canine renal failure; [15]) was 50%, the Urea (canine renal failure; [15]) was 17.5 ± 0.7 mmol/L and the Body temperature (canine renal failure; [16]) was 38.5 ± 0.3 °C. For the same compound, the Creatinine (canine renal failure; [16]) was 115 ± 12 µmol/L, the Inorganic phosphous (canine renal failure; [16]) was 1.5 ± 0.04 mmol/L and the Mortality rate (canine renal failure; [16]) was 30%. For the same compound, the Urea (canine renal failure; [16]) was 9.9 ± 0.8 mmol/L, the Mortality rate (feline parvovirus; [11]) was 50% and the “White blood cell count” value (feline parvovirus; [11]) was 9.1 ± 0.5 ×10^9. The Mortality rate (feline parvovirus; [12]) was 40%, the “White blood cell count” value (feline parvovirus; [12]) was 9.3 ± 0.9 ×10^9 and the Mortality rate (feline parvovirus; [13]) was 90%. For the same compound, the “White blood cell count” value (feline parvovirus; [13]) was 4.7 ± 0.3 ×10^9, the Mortality rate (feline parvovirus; [14]) was 80% and the “White blood cell count” value (feline parvovirus; [14]) was 7.7 ± 0.4 ×10^9. For the same compound, the Mortality rate (feline parvovirus; [15]) was 70%, the “White blood cell count” value (feline parvovirus; [15]) was 7.8 ± 0.6 ×10^9 and the Mortality rate (feline parvovirus; [16]) was 60%. The “White blood cell count” value (feline parvovirus; [16]) was 8.8 ± 0.7 ×10^9, the “Mean time of first estrus after medication” value (“Mean time of first estrus” for short) [1, 17] was 25 ± 5.5 days and the Oestrus rate [1, 17] was 65* %. The “Pregnancy rate in three estrous periods after delivery” value (“Pregnancy rate” below) [1, 17] was 56* %, the “Mean time of first estrus” value [1, 18] was 23 ± 6.2 days and the Oestrus rate [1, 18] was 78* %. The “Pregnancy rate” value [1, 18] was 75* %, the “Mean time of first estrus” value [1, 19] was 24 ± 5.2 days and the Oestrus rate [1, 19] was 68* %. The “Pregnancy rate” value [1, 19] was 58* %, the “Mean time of first estrus” value [1, 20] was 27 ± 5.8 days and the Oestrus rate [1, 20] was 54%. For the same compound, the “Pregnancy rate” value [1, 20] was 42%, the “Mean time of first estrus” value [1, 21] was 25 ± 5.4 days and the Oestrus rate [1, 21] was 64%. The “Pregnancy rate” value [1, 21] was 52%, the “Mean time of first estrus” value [1, 22] was 27 ± 6.4 days and the Oestrus rate [1, 22] was 57%. The “Pregnancy rate” value [1, 22] was 46%, the “Mean time of first estrus” value [1, 23] was 26 ± 4.6 days and the Oestrus rate [1, 23] was 60%. The “Pregnancy rate” value [1, 23] was 52%, the “Mean time of first estrus” value [1, 24] was 24 ± 7.3 days and the Oestrus rate [1, 24] was 74* %. The “Pregnancy rate” value [1, 24] was 70* %, the “Mean time of first estrus” value [1, 25] was 26 ± 4.3 days and the Oestrus rate [1, 25] was 63%. The “Pregnancy rate” value [1, 25] was 52%, the Body temperature (canine parvovirus; [11]) was 37.8 ± 0.4 °C and the Mortality rate (canine parvovirus; [11]) was 50%. For the same compound, the “White blood cell count” value (canine parvovirus; [11]) was 6.2 ± 0.5 ×10^9, the Body temperature (canine parvovirus; [12]) was 37.4 ± 0.2 °C and the Mortality rate (canine parvovirus; [12]) was 30%. The “White blood cell count” value (canine parvovirus; [12]) was 8.2 ± 0.7 ×10^9, the Body temperature (canine parvovirus; [13]) was 39.2 ± 0.5 °C and the Mortality rate (canine parvovirus; [13]) was 80%. For the same compound, the “White blood cell count” value (canine parvovirus; [13]) was 3.3 ± 0.3 ×10^9, the Body temperature (canine parvovirus; [14]) was 38.2 ± 0.5 °C and the Mortality rate (canine parvovirus; [14]) was 50%. The “White blood cell count” value (canine parvovirus; [14]) was 6.3 ± 0.4 ×10^9, the Body temperature (canine parvovirus; [15]) was 38.4 ± 0.3 °C and the Mortality rate (canine parvovirus; [15]) was 60%. For the same compound, the “White blood cell count” value (canine parvovirus; [15]) was 4.6 ± 0.8 ×10^9, the Body temperature (canine parvovirus; [16]) was 37.6 ± 0.3 °C and the Mortality rate (canine parvovirus; [16]) was 40%. The “White blood cell count” value (canine parvovirus; [16]) was 7.6 ±0.6 ×10^9.

From patent US11510933B2, “Use of Pulsatilla chinensis extract in the preparation of drugs for treatment of viral and/or bacterial diseases” (priority 2018, dated 2022)
